From US20250064845A1, “COMPOSITION COMPRISING FLAVIN ADENINE DINUCLEOTIDE (FAD), L-GSH, ATP AND MYRISTIC ACID, ALONE OR WITH A DRUG” (BIO EVEN, priority 2023, published 2025)

What was measured:
[1] = test system: H22 transplanted tumor; conditions: H22 tumor-bearing mice
Procedure: Body weight was weighed every three days.
• Species: Rodent; Strain: BALB/c mice; Grade: SPF; Gender: Female; Age: 5-6 weeks.
• The H22 mouse hepatoma cell line was purchased from Wuhan Procell Life Technology Co., Ltd. (Wuhan, China, Contract No.: XD-000-2022-03-30-0029) and stored at −80° C. after arrival.
Ascitic tumor fluid was then diluted with matrigel to adjust the cell concentration to 2*10^7 cells/mL.

[2] = test system: Pan02 transplanted pancreatic tumor; conditions: Pan02 tumor-bearing mice
Procedure: Each mouse was subcutaneously treated with Pan02 cell suspension (5*10^5 cells) in the right axilla of the forelimb. […] Body weight was weighed every three days. The volume of the solid tumor was measured using a digital caliper every three days. The survival of animals was monitored and recorded daily.
• The Pan02 mouse pancreatic cancer line was purchased from Shanghai Enzyme Research Biotechnology Co., Ltd. (Shanghai, China, Cell line No.: CC-Y2144) and stored at −80° C. after arrival. The Pan02 cells were cultured in DMEM supplemented with 10% FBS (v/v), 100 U/ml penicillin G (Sigma-Aldrich, USA), and 100 μg/mL streptomycin (Sigma-Aldrich, USA). The cultures were maintained in a humidified incubator at 37° C. and 5% CO2.
• Different test drugs were administered intravenously (i.v.) and intraperitoneally (i.p.) once every other day at 10:00 am. A or B drugs were injected into the tail vein first, and 5-FU was injected intraperitoneally 24 h later.
• Each mouse was subcutaneously treated with 0.1 mL cell suspension (5*10^5 cells) in the right axilla of the forelimb. When the tumor size increases to 100 mm^3-150 mm^3, mice were randomly divided into treatment groups: the model group (n=10), the A group (n=10), the B group (n=10), the 5-FU group (1.5 mg/kg, n=10), the A+5-FU group (1.5 mg/kg, n=10), the B+5-FU group (1.5 mg/kg, n=10) (Table 1).
• Body weight was weighed every three days. The length and width of the solid tumor was measured with a digital caliper every three days. Tumor volume was calculated by the modified ellipsoidal formula: V =n/6 x (length x width2). The survival time of animals was monitored and recorded daily. […] The percent survival (%) was calculated using the following equations: percent survival (%)=[(10-numbers of mice died in each group)/10]*100%.

## O=c1[nH]cc(F)c(=O)[nH]1 [Composition 5-FU, 5-fluorouracil]
[1]; 5-FU alone 2.5 mg/kg i.p. once every two days
  mortality rate of mice on the 22nd day: 30%
[1]; 5-FU alone 2.5 mg/kg, longer survival defaulted as 22 days
  median survival time: 22 days
[2]; 82 days, 5-FU 1.5 mg/kg
  tumor volume / antitumor effect: significantly decreased tumor volume
[2]; A or B 100 μL i.v., 5-FU 1.5 mg/kg i.p., once every other day, n=10
  mortality rate of mice on the 82nd day: 90%
[2]; A or B 100 μL i.v., 5-FU 1.5 mg/kg i.p., once every other day, test 82 days, longer survival defaulted as 82 days
  median survival time: 53.5 days
